Measured values from ChEMBL document CHEMBL5233265, “Recent advances in the design and development of formyl peptide receptor 2 (FPR2/ALX) agonists as pro-resolving agents with diverse therapeutic potential” (Eur J Med Chem, 2021).

Legend:
Format in all cases: cell-based
[1] = target: T1, N-formyl peptide receptor 2 (Homo sapiens, UniProt P25090); experiment: Agonist activity at human FPR2 expressed in CHO cells assessed as cAMP level incubated for 1.5 hr by HTRF assay
T1 sequence (P25090 whole entry): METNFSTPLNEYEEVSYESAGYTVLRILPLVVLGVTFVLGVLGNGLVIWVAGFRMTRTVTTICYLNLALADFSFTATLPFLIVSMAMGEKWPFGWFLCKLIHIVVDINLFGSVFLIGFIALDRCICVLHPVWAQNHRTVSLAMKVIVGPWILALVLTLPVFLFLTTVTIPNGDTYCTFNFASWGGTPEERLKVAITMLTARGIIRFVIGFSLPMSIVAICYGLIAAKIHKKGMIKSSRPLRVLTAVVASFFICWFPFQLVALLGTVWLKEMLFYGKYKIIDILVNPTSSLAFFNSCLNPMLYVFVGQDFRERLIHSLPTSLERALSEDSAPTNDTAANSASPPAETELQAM

[2] = target: T1, N-formyl peptide receptor 2; experiment: Agonist activity at human FPR2 expressed in CHO cells assessed as increase in calcium flux incubated for 50 mins by FLIPR calcium 5 dye based fluorescence assay
fMet-Leu-Phe receptor [3] = target: T2, fMet-Leu-Phe receptor (Homo sapiens, UniProt P21462); experiment: Agonist activity at human FPR1 expressed in CHO cells assessed as increase in calcium flux incubated for 50 mins by FLIPR calcium 5 dye based fluorescence assay
T2 sequence (P21462 whole entry): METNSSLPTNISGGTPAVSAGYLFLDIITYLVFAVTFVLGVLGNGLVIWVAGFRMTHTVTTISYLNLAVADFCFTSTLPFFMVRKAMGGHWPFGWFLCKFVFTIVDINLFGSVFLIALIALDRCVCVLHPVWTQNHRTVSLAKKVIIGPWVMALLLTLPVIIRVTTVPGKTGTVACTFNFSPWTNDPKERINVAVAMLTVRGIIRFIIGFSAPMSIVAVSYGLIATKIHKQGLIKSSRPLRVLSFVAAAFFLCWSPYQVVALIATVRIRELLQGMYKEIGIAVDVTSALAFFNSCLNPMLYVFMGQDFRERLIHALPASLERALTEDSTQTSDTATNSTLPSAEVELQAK

fMet-Leu-Phe receptor [4] = target: T2, fMet-Leu-Phe receptor; experiment: Agonist activity at human FPR1 expressed in CHO cells assessed as cAMP level incubated for 1.5 hr by HTRF assay; details: cho
[5] = target: T3, fMet-Leu-Phe receptor (Homo sapiens) (UniProt P21462); experiment: Agonist activity at FPR1 (unknown origin) expressed in CHO/Galpha16 cells assessed as maximal calcium flux at 0.61 to 10000 nM by FLIPR assay relative to control; details: dose 0.61-10000 nM
T3 sequence (whole entry): T2 sequence (P21462 whole entry)

Homo sapiens = organism: Homo sapiens; experiment: Selectivity index, ratio of EC50 for agonist activity at FPR2 (unknown origin) expressed in CHO/Galpha16 cells to EC50 for FPR1 (unknown origin) expressed in CHO/Galpha16 cells
[6] = target: T4, N-formyl peptide receptor 2 (Homo sapiens) (UniProt P25090); experiment: Agonist activity at FPR2 (unknown origin) expressed in CHO/Galpha16 cells assessed as maximal calcium flux at 0.61 to 10000 nM by FLIPR assay relative to control; details: dose 0.61-10000 nM
T4 sequence (whole entry): T1 sequence (P25090 whole entry)

[7] = target: T1, N-formyl peptide receptor 2; experiment: Agonist activity at human FPR2 transfected in HL-60 cells assessed as increase in intracellular calcium flux incubated for 30 mins by Fluo-4 AM dye based fluorometer analysis
[8] = target: T4, N-formyl peptide receptor 2 (Homo sapiens); experiment: Agonist activity at human FPR2 transfected in HL-60 cells assessed as maximal intracellular calcium flux incubated for 30 mins by Fluo-4 AM dye based fluorometer analysis relative to control; details: filed as agonist
fMet-Leu-Phe receptor [9] = target: T2, fMet-Leu-Phe receptor; experiment: Agonist activity at human FPR1 transfected in HL-60 cells assessed as increase in intracellular calcium flux incubated for 30 mins by Fluo-4 AM dye based fluorometer analysis
[10] = target: T1, N-formyl peptide receptor 2; experiment: Agonist activity at FPR2 (unknown origin) expressed in CHO/Galpha16 cells assessed as increase in calcium flux by FLIPR assay
fMet-Leu-Phe receptor [11] = target: T2, fMet-Leu-Phe receptor; experiment: Agonist activity at FPR1 (unknown origin) expressed in CHO/Galpha16 cells assessed as increase in calcium flux by FLIPR assay

NC(=O)c1ccccc1-c1ccc(N2CCC[C@@H](NC(=O)Nc3ccc(C(F)(F)F)cc3)C2=O)cc1
EC50 [1]: < 5 nM

COc1ccc([C@H]2CCNC(=O)[C@@H]2NC(=O)Nc2ccc(Cl)cc2)cc1
EC50 [2]: < 1 nM

CN1CCN(c2ccc(N3CCC[C@@H](NC(=O)Nc4ccc(C(F)(F)F)cc4)C3=O)cc2)CC1
EC50 [1]: 10 nM

COc1ccc([C@H]2CCN(c3ccnnc3)C[C@@H]2NC(=O)Nc2ccc(Cl)cc2)cc1 (relative stereo)
EC50 (fMet-Leu-Phe receptor [3]): 1 nM | EC50 [2]: 1 nM

Cc1cccc(C2(NC(=O)N[C@@H]3C(=O)NC[C@H]3c3c(F)cc(Br)cc3F)CC2)n1
EC50 [1]: 10 nM | EC50 (fMet-Leu-Phe receptor [4]): Not Active

CCC[C@H](NC(=O)CNC(=O)Nc1ccc(Br)cc1)C(=O)O
Emax [5]: 98% | Ratio EC50 (Homo sapiens): 62 | Emax [6]: 105%

CP(C)(=O)c1ccccc1-c1ccc(N2CC[C@@H](NC(=O)Nc3ccc(Cl)cc3)C2=O)c(F)c1F
EC50 [1]: 25 nM

NC(=O)c1ccccc1-c1ccc(N2CCC[C@@H](NC(=O)Nc3ccc(Cl)cc3)C2=O)cc1
EC50 [1]: < 5 nM

COc1ccc(NC(=O)N[C@@H](Cc2ccc(C#N)cc2)C(=O)NCC2(c3cccc(O)c3)CC2)cc1
EC50 ([7]; read-out: EC50): 180 nM | Emax [8]: 115% | EC50 (fMet-Leu-Phe receptor [9]; read-out: EC50): 1400 nM

O=C(Nc1ccc(C(F)(F)F)cc1)N[C@@H]1CCCN(c2ccc(N3CCOCC3)cc2)C1=O
EC50 [1]: < 10 nM

O=C(Nc1ccc(C(F)(F)F)cc1)N[C@@H]1CCCN(c2ccc(-c3ccccc3F)cc2)C1=O
EC50 [1]: < 5 nM

CC(C)C[C@H](NC(=O)CCNC(=O)Nc1ccc(Br)cc1)C(=O)O
Emax [5]: 99% | Ratio EC50 (Homo sapiens): 74 | Emax [6]: 81%

Cc1cccc(C2(NC(=O)N[C@@H]3C(=O)NC[C@H]3c3c(F)cc(Cl)cc3F)CC2)n1
EC50 [1]: 100 nM | EC50 (fMet-Leu-Phe receptor [4]): Not Active

CC(C)C(C(=O)O)C(C)NC(=O)Nc1ccc(Br)cc1 (stereo in doubt; 21)
Emax [5]: 93%

CC(C)C(C(=O)O)C(C)NC(=O)Nc1ccc(Br)cc1 (stereo in doubt; 18) [listing 1 of 2 here]
EC50 [10]: 855 nM | EC50 (fMet-Leu-Phe receptor [11]): 51 nM

N#Cc1ccc(C[C@H](NC(=O)Nc2ccc(O)cc2)C(=O)NCC2(c3ccccc3)CC2)cc1
EC50 ([7]; hl-60): Not Active | EC50 (fMet-Leu-Phe receptor [9]; hl-60): Not Active

CC(C)C(C(=O)O)C(C)NC(=O)Nc1ccc(Br)cc1 (stereo in doubt; 18) [listing 2 of 2 here]
Emax [5]: 94% | Ratio EC50 (Homo sapiens): 17 | Emax [6]: 89%

CS(=O)(=O)Nc1ccccc1-c1ccc(N2CCC[C@@H](NC(=O)Nc3ccc(C(F)(F)F)nc3)C2=O)cc1
EC50 [1]: < 5 nM | EC50 (fMet-Leu-Phe receptor [4]): Not Active

O=C(Nc1ccc(C(F)(F)F)cc1)N[C@@H]1CCCN(c2ccc(N3CC4(COC4)C3)cc2)C1=O
EC50 [1]: 10 nM

NC(=O)c1ccccc1-c1ccc(N2CCC[C@H](NC(=O)Nc3ccc(C(F)(F)F)cc3)C2=O)cc1
EC50 [1]: 40 nM

COc1ccc(NC(=O)N[C@H](Cc2ccc(C#N)cc2)C(=O)NCC2(c3ccc(O)cc3)CC2)cc1
EC50 ([7]; read-out: EC50): 7000 nM | Emax [8]: 70% | EC50 (fMet-Leu-Phe receptor [9]; hl-60): Not Active

CC(C)C(C(=O)O)C(C)NC(=O)Nc1ccc(Br)cc1 (stereo in doubt; 19)
EC50 [10]: 3240 nM | EC50 (fMet-Leu-Phe receptor [11]): 13 nM

CC1(C)CN(c2ccc(-c3ccccc3P(C)(C)=O)c(F)c2F)C(=O)[C@@H]1NC(=O)Nc1cnc(Cl)cn1
EC50 [1]: 57 nM

O=C(Nc1ccc(C(F)(F)F)cc1)NC1CCCN(c2ccc(-c3ccccc3F)cc2)C1=O (racemic)
EC50 [1]: < 5 nM

O=C(Nc1ccccc1F)N[C@@H]1CCCN(c2ccc(-c3ccccc3F)cc2)C1=O
EC50 [1]: 40 nM

O=C(Nc1ccc(C(F)(F)F)cc1)N[C@H]1CCCN(c2ccc(-c3ccccc3F)cc2)C1=O
EC50 [1]: 40 nM
